Article PMC11941704 (Current Issues in Molecular Biology, 2025)
Where “and” joins values, the source holds several entries; their conditions need not be identical. Equal values may be shown once. Read-outs that look alike come from different tables or passages of the source.

Columns and labels:
SARS-CoV-2 main protease [1] = molecular target: T1, SARS-CoV-2 main protease (Severe acute respiratory syndrome coronavirus 2, UniProt P0DTD1); assay: biochemical; assay type: biochemical; settings: for IC50: IC50 Value SARS-CoV-2 Main Protease
[2] = system: SARS-CoV-2 spike protein–human ACE2 interaction; assay type: binding, SARS-CoV-2 / human
[3] = system: C. perfringens neuraminidase; assay type: biochemical, Clostridium perfringens; settings: for IC50: read-out: IC50 Value C. perfringen Neuraminidase
SARS-CoV-2 main protease [4] = molecular target: T1, SARS-CoV-2 main protease; settings: read-out: IC50 Value SARS-CoV-2 Main Protease; cited from earlier work

SMILES	Potency Index, SARS-CoV-2 main protease (SARS-CoV-2 main protease [1])	inhibition at 100 µg/mL (SARS-CoV-2 main protease [1])	% Inhibition SARS-CoV-2 Spike Protein–Human ACE2 Interaction [2]	Potency Index, SARS-CoV-2 spike protein [2]	Ratio, SARS-CoV2 spike protein [2]	Potency Index*, bacterial neuraminidase, compared to std influenza A [3]	Potency Index, bacterial (C. perfringens) neuraminidase [3]	IC50 [3]	IC50 (SARS-CoV-2 main protease [4])	IC50 (SARS-CoV-2 main protease [1])	% Inhibition C. perfringen Neuraminidase [3]
CCCCCc1cc(O)c2c(c1)OC(C)(CCC=C(C)C)C=C2 (centres unmarked) [CBC, cannabichromene]	100	75%	95.25 (± 4.54) %	4.99	1.05	56.89	5.18	56.9 µM	–	–	–
C=C(C)[C@@H]1CCC(C)=C[C@H]1c1c(O)cc(CCCCC)cc1O [CBD, cannabidiol, reference compound]	4.43	–	–	77.62	1.78	4.53	0.41	4.5 µM and 4.53 µM	1.86 µM	–	–
C=C(C)C1CCC(C)(O)C2Oc3cc(CCCCC)cc(O)c3C12 (centres unmarked) [CBE, cannabielsoin]	100	80.3%	–	35.75	1.36	–	–	–	–	–	–
CCCCCc1cc(O)c2c(c1)oc1c(C)ccc(C(C)C)c12 [CBF, cannabifuran]	100	65.3%	99.22 (± 1.36) %	–	1.01	–	–	–	–	–	–
CCCCCc1cc(O)c(C/C=C(\C)CCC=C(C)C)c(O)c1 [CBG, cannabigerol]	–	> 80%	97.60 (± 4.16) %	2.46	1.02	6.92	0.63	6.9 µM and 6.92 µM	–	5.68 µM	–
CCCCCc1cc(O)c2c(c1)OC1(C)CCC3C1C2C3(C)C (centres unmarked) [CBL, cannabicyclol]	–	> 80%	–	54.53	1.55	96.12	8.75	96.1 µM	–	5.67 µM	–
CCCCCc1cc(O)c2c(c1)OC(C)(C)c1ccc(C)cc1-2 [CBN, cannabinol]	100	–	–	39.18	1.39	100.00	100	–	–	–	34.87 (± 3.08) %
CCCCCc1cc(O)c2c(c1)OC(C)(C)[C@@H]1CCC(C)=C[C@@H]21 [THC, tetrahydrocannabinol, reference compound]	38.64	–	–	72.94	1.73	20.30	1.85	~20.3 µM and 20.3 µM	16.2 µM	–	–
COc1cc(O)c2c(c1)O[C@H](c1ccccc1)CC2=O [pinostrobin, reference compound]	–	–	100%	–	–	–	–	–	–	–	–
O=c1c(O)c(-c2ccc(O)c(O)c2)oc2cc(O)cc(O)c12 [quercetin, reference compound]	–	–	–	–	–	–	–	~11 µM and 11 µM	–	–	–
